Results as given in patent publication US20170296457A1, “PRODUCTS AND METHODS FOR TREATING PERIORBITAL DYSCHROMIA” (The Procter & Gamble Company, priority 2016, published 2017).

Tested on: B16-F1 mouse melanoma cell line
Experiment: B16 melanin synthesis inhibition assay
Format: cell-based
Settings: B16-F1 cells, OD at 410 nm
Experimental: In this example, a commercially available B16-F1 mouse melanoma cell line from American Tissue Culture Collection, Virginia, USA was employed in a conventional melanin synthesis inhibition assay. The cell culture medium used in the assay is 500 mL of Dulbecco's Modified Eagle's Medium (DMEM), 50 mL Fetal Bovine Serum (FBS), and 5 mL of penicillin-streptomycin liquid. B16-F1 cells that are cultured in this medium and grown to greater than 90% confluency will synthesize melanin. While not intending to be bound by any theory, it is hypothesized that the melanin synthesis is stimulated by the culture medium and/or stress induced by growth to a high confluency. […] Equipment used in the assay include a CO2 incubator, such as a Forma Series Model 3110 by Therma Scientific, Massachusetts, USA; a hemocytometer, such as a Bright Line model by Hauser Scientific, Pennsylvania, USA; and a UV-Visible Spectrum Plate Reader, such as a SpectraMax250 from Molecular Devices, California, USA. […] Day 3: The cells from the T-150 flask are trypsinized, and the concentration of cells is determined using the hemacytometer. […] Read the 96 well plate using the UV-Vis Plate Reader at 410 nm to optically measure the amount of melanin produced between wells that are treated with the pumpkin seed extract and control wells that are not. […] The concentration of test agent needed to provide the IC 50 is recorded.

Oc1ccc(OC2CCCCO2)cc1 (stereo not shown) [Deoxyarbutin]
Concentration Needed for IC 50 (v/v): 0.008 v/v
